Data as given in publication PMC10138714, “Evaluation of Some Safety Parameters of Dual Histamine H3 and Sigma-2 Receptor Ligands with Anti-Obesity Potential” (International Journal of Molecular Sciences, 2023).

Key:
rats = assay: Heart rate and ECG intervals in rats; type: in vivo, male Wistar rats; conditions: 10 mg/kg i.p.
Procedure: (§1) Blood pressure measurement and ECG were performed on male Wistar rats weighing 200–220 g (six months old). Locomotor activity and chimney tests were performed on adult male Albino Swiss (CD-1) mice weighing 18–22 g ([…]). The animals were obtained from an accredited animal house at the Faculty of Pharmacy, Jagiellonian University Medical College, Krakow, Poland. The experimental groups consisted of 6–8 animals. The animals were housed in constant temperature (22–24 °C) and humidity (40–60%) facilities, exposed to 12:12 h light/dark cycles, and were maintained on a standard pellet diet with tap water available ad libitum. Rats and mice were housed in pairs or 8 animals per home cage, respectively.
In vivo electrocardiographic measurements were performed using an ASPEL ASCARD B5 apparatus, standard lead II, and a paper speed of 50 mm/s. The study was carried out after a single administration of the test compounds (10 mg/kg i.p.). […] The following parameters were then calculated and analyzed: duration of PQ, QT, QRS, RR intervals, and heart rate.

mice [1] = assay: Motor coordination in the chimney test; type: in vivo, male Albino Swiss (CD-1) mice; conditions: for % of Mice Impaired: chimney test, 30 min after injection, n = 8
Procedure: as §1
The effect of tested compounds on motor impairment were quantified with the chimney test of Boissier et al. (1960). The mice were trained before the test, and only the animals able to get out of the chimney within 1 min were used at the experimental stage. The selected mice were placed in a 25 cm-long and 2.5 cm in diameter […] tube, which was reversed so that the mice could leave it only by climbing up backward until they reached the other end. The test was performed 30 min after injection (i.p.) of the examined compounds. Motor impairment was indicated by the inability of the animals to climb up backwards in the transparent tube within 60 s.

[2] = system: rats fed a palatable diet; assay: Plasma AlaT, AspaT, gGT and ALP activity after repeated administration in rats fed a palatable diet; type: in vivo; conditions: 10 mg/kg b.w. i.p. repeated; for Plasma AspaT activity: relative to both control groups (standard or palatable feed); for Plasma ALP activity: vs control group fed standard feed; for Plasma gGT activity: vs palatable feed-fed control group
Procedure: Standard diet ( 8% fats, 67% carbohydrates, and 25% proteins) contained 100 g feed—280 kcal. Rats fed a palatable diet had access to a diet consisting of milk chocolate with nuts, cheese, salted peanuts, and 7% condensed milk and simultaneously to standard feed (Labofeed B, Morawski Manufacturer Feed, Kcynia, Poland) for 4 weeks. The feeding was not in any way forced, and rats decided themselves when, what, and how much to eat. A palatable diet contained 100 g of peanuts—612 kcal; 100 mL of condensed milk—131 kcal; 100 g of milk chocolate—529 kcal; and 100 g of cheese—325 kcal.
The study evaluating the activities of alanine aminotransferase (AlaT), aspartate aminotransferase (AspaT), gamma-glutamyl transpeptidases (gGT), and alkaline phosphatase (ALP) was carried out after completing the excessive eating model experiments described in our previous work. Compounds were administered for twenty-eight days at a dose of 10 mg/kg b.w./day. On the 31st day of the experiment, 20 min after i.p. administration of heparin (5000 units/rat) and thiopental (70 mg/kg b.w.), blood was collected from the left carotid artery and then centrifuged at 600× g (15 min, 4 °C) in order to obtain the plasma. To determine the activities of AlaT, AapaT, gGT, and ALP in the plasma samples, a standard enzymatic spectrophotometric test (Biomaxima S.A., Lublin, Poland) was used.

normotensive rats = assay: Blood pressure in anesthetized normotensive rats (carotid artery cannulation); type: in vivo, male Wistar rats
Procedure: as §1
Rats were anesthetized with thiopental (70 mg/kg) via i.p. injection. The left carotid artery was cannulated with polyethylene tubing filled with a heparin solution in saline to facilitate pressure measurements using a PowerLab Apparatus (ADInstruments, Sydney, Australia). After a 20 min stabilization period, the test compounds were administered i.p. at a dose of 10 mg/kg b.w. in a constant volume of 1 mL/kg b.w. Blood pressure was recorded immediately before administration and 5, 10, 15, 20, 30, 40, 50, and 60 min after the administration of the test compound [47].

σ2R = biological target: σ2R; design: method as in PMID 34908391; conditions: cited from earlier work
σ1R = biological target: σ1R; design: method as in PMID 34908391; conditions: cited from earlier work; for σ1/σ2: ratio of Ki values
[3] = biological target: T1, human ERG potassium channel (Kv11.1) (Homo sapiens, UniProt Q12809); assay: Whole-cell automated patch clamp (QPatch16X), inhibition of hERG currents; type: cell-based; conditions: for IC50: CHO cells stably expressing human ERG, whole-cell, mean of three experiments, read-out: Mean IC50 ± SEM, inhibition of hERG currents; for Inhibition of hERG compared with verapamil: relative to reference compound verapamil
T1 construct: expressed in transfected cells
T1 sequence (Q12809 whole entry): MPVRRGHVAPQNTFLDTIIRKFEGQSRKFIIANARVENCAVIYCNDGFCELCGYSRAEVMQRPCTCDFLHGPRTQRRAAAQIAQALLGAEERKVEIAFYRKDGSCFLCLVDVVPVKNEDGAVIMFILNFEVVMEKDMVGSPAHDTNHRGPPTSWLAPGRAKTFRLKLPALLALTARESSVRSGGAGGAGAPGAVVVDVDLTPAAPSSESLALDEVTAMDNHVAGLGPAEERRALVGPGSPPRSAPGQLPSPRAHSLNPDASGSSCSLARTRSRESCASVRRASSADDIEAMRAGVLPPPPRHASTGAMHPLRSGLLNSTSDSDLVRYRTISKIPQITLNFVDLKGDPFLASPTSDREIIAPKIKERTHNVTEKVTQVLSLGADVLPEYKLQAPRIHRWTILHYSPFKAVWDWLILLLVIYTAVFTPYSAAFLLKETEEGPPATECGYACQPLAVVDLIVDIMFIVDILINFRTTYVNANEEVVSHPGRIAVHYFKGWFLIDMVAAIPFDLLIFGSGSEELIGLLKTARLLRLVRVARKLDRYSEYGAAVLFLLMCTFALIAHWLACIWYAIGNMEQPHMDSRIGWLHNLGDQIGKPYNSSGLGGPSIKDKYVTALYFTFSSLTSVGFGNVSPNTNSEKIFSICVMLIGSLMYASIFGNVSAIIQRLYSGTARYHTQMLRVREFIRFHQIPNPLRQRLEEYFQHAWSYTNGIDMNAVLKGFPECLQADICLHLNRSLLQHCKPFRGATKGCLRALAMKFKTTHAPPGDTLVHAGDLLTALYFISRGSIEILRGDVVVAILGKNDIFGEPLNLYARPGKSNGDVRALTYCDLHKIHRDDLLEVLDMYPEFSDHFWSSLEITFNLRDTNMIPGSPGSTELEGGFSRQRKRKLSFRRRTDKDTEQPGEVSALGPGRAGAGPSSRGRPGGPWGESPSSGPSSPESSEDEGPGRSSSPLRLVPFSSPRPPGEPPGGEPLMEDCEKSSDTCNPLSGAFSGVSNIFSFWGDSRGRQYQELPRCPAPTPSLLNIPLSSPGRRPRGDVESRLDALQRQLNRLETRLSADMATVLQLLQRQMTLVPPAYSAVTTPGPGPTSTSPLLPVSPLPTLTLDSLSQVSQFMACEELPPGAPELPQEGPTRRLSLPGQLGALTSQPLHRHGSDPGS
Procedure: Electrophysiology experiments were performed on a QPatch16X automatic patch clamp platform (Sophion Bioscience, Ballerup, Denmark). Chinese hamster ovary (CHO) cells stably expressing the human ERG potassium channel (Kv11.1) were cultured using standard procedures. On the day of the experiment, cells were collected from the culture flask using TrypLE Express solution (Life Technologies, Thermo Fisher Scientific, Carlsbad, California, United States) and resuspended in EX-CELL ACF CHO serum-free medium (Merck KGaA, Sigma-Aldrich, Darmstadt, Germany), supplemented with 25 mM HEPES, 100 U/mL penicillin/streptomycin, and 0.04 mg/mL soybean trypsin inhibitor (all components from Sigma Aldrich).
The cells were placed in the lidless microtube and located onboard the automated electrophysiology instrument, where they were automatically relocated to a built-in centrifuge.
Cells were transferred to pipetting wells of single-use 16-channel planar patch chip plates (QPlate 16X, Sophion Bioscience, Ballerup, Denmark) and gigaseals were formed upon application of a combined suction/voltage protocol in a standard protocol supplied by Sophion Bioscience for CHO cells. Once the whole-cell mode was obtained, the cells were kept in a holding potential of -90 mV between the programmed stimulation protocols.
Whole-cell potassium currents were measured in response to repeatedly executed voltage protocols constituted of the following steps: brief clamping to −50 mV (200 ms), subsequent depolarization to 20 mV for 4000 ms, and final repolarization to −50 mV when the outward tail current was measured for 4000 ms.
The average current peak values determined in the presence of particular concentrations of the compound tested were subjected to a sigmoidal dose–response curve fitting, where the bottom plateau parameter was constrained to 0. The IC50 values were then calculated from the obtained sigmoidal dose–response curves. Data were analyzed using QPatch Assay Software (v5.0, Sophion Bioscience, Ballerup, Denmark) and represent the mean of three experiments carried out on distinct cells.

H3R = biological target: H3R; design: method as in PMID 34908391; conditions: cited from earlier work; for H3/σ1 / H3/σ2: ratio of Ki values
mice [4] = assay: Locomotor activity in mice (activity cages, photobeam breaks); type: in vivo, male Albino Swiss (CD-1) mice; conditions: single i.p. 30 mg/kg b.w., vs vehicle group
Procedure: as §1
Locomotor activity was individually recorded for each animal using specifically designed activity cages made of clear Perspex (40 cm × 40 cm × 31 cm, Activity Cage 7441, Ugo Basile, Italy). The cages were supplied with I.R. horizontal beam emitters connected to a counter that records the light-beam interruptions. The compounds suspensions were administered as i.p. injections 30 min before testing. Control animals received injections of vehicles. Each mouse was placed in a cage for a 30 min habituation period. After that time, the number of breaks in the photobeams was measured for 5 min, which is the same time as the observation period used in other tests.

SMILES | Heart rate (rats; time 0 min) | PQ (rats; time 0 min) | QRS (rats; time 0 min) | QT (rats; time 0 min) | Heart rate (rats; time 15 min) | PQ (rats; time 15 min) | QRS (rats; time 15 min) | QT (rats; time 15 min) | Heart rate (rats; time 30 min) | PQ (rats; time 30 min) | QRS (rats; time 30 min) | QT (rats; time 30 min) | Heart rate (rats; time 45 min) | PQ (rats; time 45 min) | QRS (rats; time 45 min) | QT (rats; time 45 min) | Heart rate (rats; time 60 min) | PQ (rats; time 60 min) | QRS (rats; time 60 min) | QT (rats; time 60 min) | other results
c1ccc(-c2ccc(OCCCN3CCN(c4ccncc4)CC3)cc2)cc1 [KSK-61] | 373.2 ± 20.3 beats/min | 53 ± 1.6 ms | 20.8 ± 0.8 ms | 56.3 ± 4.1 ms | 369.5 ± 9.5 beats/min | 52.8 ± 1.5 ms | 21.5 ± 0.5 ms | 56.3 ± 2.2 ms | 380.2 ± 30.5 beats/min | 54.5 ± 3.5 ms | 21.8 ± 1.1 ms | 58.8 ± 2.2 ms | 349.5 ± 21.3 beats/min | 53.3 ± 1.8 ms | 21.8 ± 0.8 ms | 57.5 ± 4.3 ms | 360.4 ± 20.3 beats/min | 53 ± 1.6 ms | 21.8 ± 0.4 ms | 55 ± 5.0 ms | % of Mice Impaired (mice [1]; 10 mg/kg i.p.): 25%; % of Mice Impaired (mice [1]; 20 mg/kg i.p.): 12.5%; % of Mice Impaired (mice [1]; 30 mg/kg i.p.): 25%; Effect on motor coordination (chimney test) (mice [1]; mice, 10-30 mg/kg i.p., Fisher exact probability test): decreases the ability to exit the chimney at all doses tested in one or two mice per group; Plasma AspaT activity [2]: higher AspaT activity; Plasma ALP activity [2]: greater ALP activity; Plasma gGT activity [2]: statistically lower gGT activity; Effect on blood pressure (normotensive rats; single i.p. 10 mg/kg b.w., vs vehicle (1% Tween 80)): did not affect blood pressure; Ki (σ2R): 108 nM; Ki (σ1R): 638 nM; σ1/σ2 (σ1R): 5.90; IC50 [3]: 2660 ± 217 nM; Inhibition of hERG compared with verapamil [3]: about five times weaker; Ki (H3R): 21.1 nM; H3/σ1 (H3R): 0.03; H3/σ2 (H3R): 0.20; Locomotor activity (mice [4]): significant decrease
O=C(c1ccccc1)c1ccc(OCCCN2CCN(c3ccncc3)CC2)cc1 [KSK-63] | 393.8 ± 34.8 beats/min | 57.5 ± 2.5 ms | 20.0 ± 0.0 ms | 63.3 ± 5.1 ms | 362.8 ± 38.0 beats/min | 55.0 ± 5.0 ms | 20.0 ± 0.0 ms | 64.4 ± 2.6 ms | 365.2 ± 34.8 beats/min | 58.75 ± 1.3 ms | 20.0 ± 0.0 ms | 65.3 ± 4.7 ms | 344.3 ± 30.8 beats/min | 55.0 ± 5.0 ms | 20 ± 0.0 ms | 62.1 ± 1.6 ms | 344.3 ± 30.8 beats/min | 62.5 ± 2.1 ms | 20.0 ± 0.0 ms | 65.2 ± 3.6 ms | % of Mice Impaired (mice [1]; 10 mg/kg i.p.): 0%; % of Mice Impaired (mice [1]; 20 mg/kg i.p.): 0%; % of Mice Impaired (mice [1]; 30 mg/kg i.p.): 0%; Plasma AspaT activity [2]: higher AspaT activity; Plasma ALP activity [2]: greater ALP activity; Plasma gGT activity [2]: statistically lower gGT activity; Plasma AlaT activity ([2]; vs vehicle control fed palatable feed): lower; Increase of systolic blood pressure (normotensive rats; single i.p. 10 mg/kg b.w., 5, 10 and 20 min after administration): 16–22 mmHg; Ki (σ2R): 29.2 nM; Ki (σ1R): 726 nM; σ1/σ2 (σ1R): 24.83; IC50 [3]: 570 ± 50 nM; Inhibition of hERG compared with verapamil [3]: close to the reference compound; H3/σ1 (H3R): 0.004; H3/σ2 (H3R): 0.11; Locomotor activity (mice [4]): significant decrease
